# Measurements reported in PMC11263240 (Pharmaceutical Research, 2024).
# Where a name gives a salt, the structure may show the parent alone. Read-outs that look alike come from different tables or passages of the source.
# Legend:
# [1] = Noncompartmental plasma pharmacokinetics of ondansetron after IV co-administration with tariquidar; assay type: in vivo, rat; details: ondansetron 10 mg/kg with tariquidar, wild type rats vs wild-type (and Pgp KO) rats
# Experimental: The study was conducted under the protocol approved by the Institutional Animal Care and Use Committee at Rutgers University. Wild-type Sprague Dawley rats (males of 10–12 weeks, weighing 300–350 g and females of 12–14 weeks, weighing 250–280 g) were purchased from Horizon Discovery (previously Sage Labs Inc., Boyertown, PA). Animals were housed in a vivarium under controlled temperatures and 12/12 h dark/light cycle with free access to food and water. Right jugular vein was cannulated to allow for accurate intravenous dosing using polyethylene tubing (PE-50, Braintree Scientific, Braintree, MA). The surgery was performed under light isoflurane anesthesia, and after that animals were allowed to recover for 24 h. Intradermal bupivacaine and subcutaneous meloxicam were provided as analgesia. […]
# A standard noncompartmental analysis was performed using average plasma concentration–time data (samples obtained from sequential and terminal experiments were combined) in Phoenix WinNonlin version 8.1 (Certara, Princeton, NJ). For plasma, the area under the plasma concentration–time curve from time zero to infinity (AUCplasma), systemic clearance (CL), volume of distribution at steady state (Vd,ss), half-life (t1/2,plasma), and mean residence time (MRT) were calculated. […]
# [2] = Semi-physiological pharmacokinetic model of ondansetron systemic and CNS disposition (estimated parameters); assay type: in vivo, rat; details: for k12 Distribution rate constant to peripheral distribution compartment / k13 Distribution rate constant to brain compartment / k14 Distribution rate constant to spinal cord compartment / k15 Distribution rate constant to CSF compartment / k21 Distribution rate constant from peripheral distribution compartment / k31 Distribution rate constant from brain compartment / k35=45 Rate constant for brain/spinal cord and CSF exchange / k41 Distribution rate constant from spinal cord compartment / k51 Distribution rate constant from CSF compartment / k53=54 Rate constant for brain/spinal cord and CSF exchange: model estimate shared across WT, KO, OT; for kPgp,TRQ Rate constant for Pgp-mediated efflux from the CNS for OT animals / kPgp Rate constant for Pgp-mediated efflux from the CNS: model estimate; for kPgp,TRQ Rate constant for Pgp-mediated efflux from the CNS for OT animals: OT group (with tariquidar); for kPgp Rate constant for Pgp-mediated efflux from the CNS: wild type animals, ondansetron alone; for Vd / k el: rat, plasma, brain, spinal cord, CSF, iv, 10 mg/kg
# Experimental: Interconnectivity of CNS compartments followed animal physiology (A3 - brain, A4 – spinal cord, A5 - CSF), and previously published CNS model were consulted. The volume of the brain (Vbrain) was fixed to a previously determined value of 1.8 mL which was also in agreement with the brain weight reported before. The volume of the CSF compartment (VCSF) was fixed to 0.25 mL [25]. The volume of the spinal cord (Vspinal) was measured and reported in our previous study and was fixed to 0.6 mL. First order rate constant were used to describe a bidirectional passive permeability between the central disposition compartment (with the volume V1) and various CNS compartments (k13, k31, k14, k41, k15, k51) and distributional terms between CNS compartments (k35, k53, k45, k54). Pgp efflux at the BBB was described using a first-order term (kpgp) and was included for wild type animals only; the term was set to zero in KO rats. The following differential Eqs. (1–5) were used: 1 dA1/dt=k21·A2+k31·A3+k41·A4+k51·A5-kel+k12+k13+k14+k15·A1+kPgp·A3+kPgp·A4 2 dA2/dt=k12·A1-k21·A2 3 dA3/dt=k13·A1+k53·A5-k31+k35+kPgp·A3 4 dA4/dt=k14·A1+k54·A5-k41+k45+kPgp·A4 5 dA5/dt=k15·A1+k35·A3+k45·A4-k51+k53+k54·A5
# (§1) The whole dataset included mean ondansetron profiles of OT-M and OT-F in plasma, brain, spinal cord, and CSF obtained in this study and previous data for male and female WT and KO animals. […] Several functions to describe tariquidar-induced Pgp inhibition were considered. […] The final model included a separate term for describing Pgp function in OT groups (kPgp,TRQ). Other parameters were shared across WT, KO, and OT models. All model parameters were estimated. A separate set of parameters was estimated for female cohorts (WT-F, KO-F, OT-F) using the same final model structure.
# R (version 3.31) and Rstudio (version 1.2.5001, Boston, MA, USA) with Ubiquity package were used for model development as described before.
# [3] = CNS disposition of ondansetron (brain, spinal cord, CSF) after IV co-administration with tariquidar; assay type: in vivo, rat; details: ondansetron 10 mg/kg + tariquidar 7.5 mg/kg IV
# Experimental: (§2) Animals previously used in the plasma pharmacokinetics study were included following a two-week washout period; and additional animals were added to achieve n = 4–6 per time point. […] Groups of rats were sacrificed at 0.16, 0.25, 0.5, 1, 1.5, 2, and 2.5 h under isoflurane anesthesia, and terminal samples were collected including plasma, brain, spinal cord, and cerebrospinal fluid from cisterna magna (CSF) and stored at −20°C.
# Agilent 1260 Infinity HPLC equipped with a photodiode array detector was used (Agilent, Santa Clara, CA, USA) in this work. […] Inter-day and intra-day accuracy and precision of the assay were within 15%.
# A standard noncompartmental analysis was performed using average plasma concentration–time data (samples obtained from sequential and terminal experiments were combined) in Phoenix WinNonlin version 8.1 (Certara, Princeton, NJ). For plasma, the area under the plasma concentration–time curve from time zero to infinity (AUCplasma), systemic clearance (CL), volume of distribution at steady state (Vd,ss), half-life (t1/2,plasma), and mean residence time (MRT) were calculated. For brain, spinal cord, and CSF the area under the tissue concentration–time curve (AUCtissue) and half-life in tissue (t1/2,tissue) were reported.
# However, since the AUC values were based on terminal samples, no statistical comparison among the groups could be performed.
# [4] = design: method as in PMID 15275776; details: cited from earlier work
# [5] = ondansetron alone 10 mg/kg IV, cited from earlier work
# [6] = Tariquidar concentrations in plasma, brain, spinal cord and CSF after IV administration; assay type: in vivo, rat; details: 7.5 mg/kg IV; for half-life: Sprague Dawley, rat, plasma
# Experimental: as §2
# Agilent 1260 Infinity HPLC equipped with a photodiode array detector was used (Agilent, Santa Clara, CA, USA) in this work.
# Data analysis was performed separately for male (OT-M) and female (OT-F) rat groups.
# [7] = assay type: in vivo
# Pgp [8] = test: Inhibition of Pgp efflux at the CNS by tariquidar in vivo; design: species or system rat; details: tariquidar 7.5 mg/kg IV, 30 min before ondansetron 10 mg/kg IV, wild type rats
# Experimental: as §2, §1
# Pgp [9] = details: cited from earlier work
# Pgp [10] = details: 30 min after intravenous injection of tariquidar doses above 6 mg/kg; cited from earlier work
# Pgp [11] = details: read-out: affinity to Pgp (KD); cited from earlier work
smiles,measurement,setting,value
"Cc1nccn1CC1CCc2c(c3ccccc3n2C)C1=O (stereo not shown) [Ondansetron, Ondansetron hydrochloride]",plasma ondansetron concentration in comparison to ondansetron administered alone,[1],almost doubled
same,k12 Distribution rate constant to peripheral distribution compartment,[2]; Female,4.37 h⁻¹
same,k13 Distribution rate constant to brain compartment,[2]; Female,13.0 h⁻¹
same,k14 Distribution rate constant to spinal cord compartment,[2]; Female,3.60 h⁻¹
same,k15 Distribution rate constant to CSF compartment,[2]; Female,0.518 h⁻¹
same,k21 Distribution rate constant from peripheral distribution compartment,[2]; Female,2.32 h⁻¹
same,k31 Distribution rate constant from brain compartment,[2]; Female,25.2 h⁻¹
same,k35=45 Rate constant for brain/spinal cord and CSF exchange,[2]; Female,0.914 h⁻¹
same,k41 Distribution rate constant from spinal cord compartment,[2]; Female,31.5 h⁻¹
same,k51 Distribution rate constant from CSF compartment,[2]; Female,47.3 h⁻¹
same,k53=54 Rate constant for brain/spinal cord and CSF exchange,[2]; Female,79.9 h⁻¹
same,"kPgp,TRQ Rate constant for Pgp-mediated efflux from the CNS for OT animals",[2]; Female,0.0001 h⁻¹
same,kPgp Rate constant for Pgp-mediated efflux from the CNS,[2]; Female,101 h⁻¹
same,k12 Distribution rate constant to peripheral distribution compartment,[2]; Male,2.14 h⁻¹
same,k13 Distribution rate constant to brain compartment,[2]; Male,17.6 h⁻¹
same,k14 Distribution rate constant to spinal cord compartment,[2]; Male,9.37 h⁻¹
same,k15 Distribution rate constant to CSF compartment,[2]; Male,0.081 h⁻¹
same,k21 Distribution rate constant from peripheral distribution compartment,[2]; Male,2.62 h⁻¹
same,k31 Distribution rate constant from brain compartment,[2]; Male,39.6 h⁻¹
same,k35=45 Rate constant for brain/spinal cord and CSF exchange,[2]; Male,0.928 h⁻¹
same,k41 Distribution rate constant from spinal cord compartment,[2]; Male,71.0 h⁻¹
same,k51 Distribution rate constant from CSF compartment,[2]; Male,6.84 h⁻¹
same,k53=54 Rate constant for brain/spinal cord and CSF exchange,[2]; Male,66.6 h⁻¹
same,"kPgp,TRQ Rate constant for Pgp-mediated efflux from the CNS for OT animals",[2]; Male,0.002 h⁻¹
same,kPgp Rate constant for Pgp-mediated efflux from the CNS,[2]; Male,81.9 h⁻¹
same,Vd,"[2]; female, Sprague Dawley, with tariquidar (co-administered), read-out: V1,TRQ Central volume of distribution",0.0113 L
same,k el,"[2]; female, Sprague Dawley, with tariquidar (co-administered), read-out: kel,TRQ Systemic elimination rate constant for OT animals (converted)",0.000839 s⁻¹
same,Vd,"[2]; female, read-out: V1 Central volume of distribution",0.0133 L
same,k el,"[2]; female, read-out: kel Systemic elimination rate constant (converted)",0.00141 s⁻¹
same,Vd,"[2]; male, Sprague Dawley, with tariquidar (co-administered), read-out: V1,TRQ Central volume of distribution",0.0127 L
same,k el,"[2]; male, Sprague Dawley, with tariquidar (co-administered), read-out: kel,TRQ Systemic elimination rate constant for OT animals (converted)",0.000939 s⁻¹
same,Vd,"[2]; male, read-out: V1 Central volume of distribution",0.0175 L
same,k el,"[2]; male, read-out: kel Systemic elimination rate constant (converted)",0.001 s⁻¹
same,"AUCtissue,0-∞","[3]; Brain, OT-F: female rats",19.16 h⋅μg⋅mL^−1
same,"AUCtissue,0-∞","[3]; Brain, OT-M: male rats",22.0 h⋅μg⋅mL^−1
same,"AUCtissue,0-∞","[3]; CSF, OT-F: female rats",1.49 h⋅μg⋅mL^−1
same,"AUCtissue,0-∞","[3]; CSF, OT-M: male rats",1.37 h⋅μg⋅mL^−1
same,"AUCtissue,0-∞","[3]; Spinal Cord, OT-F: female rats",15.6 h⋅μg⋅mL^−1
same,"AUCtissue,0-∞","[3]; Spinal Cord, OT-M: male rats",15.0 h⋅μg⋅mL^−1
same,effect of intrathecal administration in a neuropathic animal model,[4],dose-dependent antinociceptive effect
same,KP_KO,"[5]; Brain, female Pgp knockout rats",3.04
same,KP_WT,"[5]; Brain, female wild type rats",0.71
same,KP_KO,"[5]; Brain, male Pgp knockout rats",2.52
same,KP_WT,"[5]; Brain, male wild type rats",0.46
same,KP_KO,"[5]; CSF, female Pgp knockout rats",0.22
same,KP_WT,"[5]; CSF, female wild type rats",0.11
same,KP_KO,"[5]; CSF, male Pgp knockout rats",0.19
same,KP_WT,"[5]; CSF, male wild type rats",0.06
same,KP_KO,"[5]; Spinal Cord, female Pgp knockout rats",1.34
same,KP_WT,"[5]; Spinal Cord, female wild type rats",0.47
same,KP_KO,"[5]; Spinal Cord, male Pgp knockout rats",1.78
same,KP_WT,"[5]; Spinal Cord, male wild type rats",0.39
COc1cc2c(cc1OC)CN(CCc1ccc(NC(=O)c3cc(OC)c(OC)cc3NC(=O)c3cnc4ccccc4c3)cc1)CC2 [Tariquidar],half-life,[6]; female rats,2.2 h
same,half-life,[6]; male rats,3.1 h
same,Tariquidar detection in CSF samples,"[6]; rats, limit of detection 50 ng/mL for CSF",could not be detected
same,toxicity in rats immediately after ondansetron injection,[7]; tariquidar 15 mg/kg 30 min before ondansetron 10 mg/kg,toxicity
same,toxicity in rats after ondansetron injection,"[7]; tariquidar dose decreased to 7.5 mg/kg, ondansetron 10 mg/kg",eliminating this toxicity
same,inhibition of Pgp efflux of ondansetron in the brain and spinal cord,Pgp [8],almost complete inhibition
same,inhibitory activity (IC50),Pgp [9],nM-range
same,inhibition of Pgp,Pgp [10],complete inhibition
same,Kd,Pgp [11],5.1 nM
